In the first test the test system is Oryza sp. In words: Compound was evaluated for protecting rice plants from infestation by blast upon foliar application. Format: functional.
In turn, `C[C@@H](NC(=O)[C@]1(C(F)(F)F)C[C@](C)(Cl)C1)c1ccc(Br)cc1` (stereo in doubt; 3b) displayed an ED90 of 40 p.p.m.

For a further test, the target named is T1, Scytalone dehydratase (Magnaporthe oryzae (strain 70-15 / FGSC 8958) (Rice blast fungus)(Pyricularia oryzae), UniProt P56221).
T1 sequence (P56221 whole entry): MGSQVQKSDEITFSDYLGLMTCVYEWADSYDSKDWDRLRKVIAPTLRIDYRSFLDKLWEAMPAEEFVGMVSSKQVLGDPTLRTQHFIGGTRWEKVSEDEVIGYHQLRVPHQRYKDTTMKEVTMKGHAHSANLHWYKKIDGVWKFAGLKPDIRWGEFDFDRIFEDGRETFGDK
In words: Inhibitory activity against Scytalone dehydratase. The arrangement: species or system Pyricularia grisea.
As for `CC(CCc1ccccc1)NC(=O)C1(C(F)(F)F)CC(C)(Cl)C1` (configuration not stated), the affinity corresponds to a Ki of 8.6 nM.
Same read-out and setting: then `C[C@@H](NC(=O)C1(C(F)(F)F)CC(C)(Cl)C1)c1ccc(Br)cc1` (some centres not stated), with 0.049 nM.
The same measure, in the same setting: for `CC(NC(=O)C1(C(F)(F)F)CC(C)(Cl)C1)c1ccc(Oc2ccccc2)cc1` (configuration not stated) the value was 5.6 nM.
Turning to `C[C@H](COc1ccccc1F)NC(=O)C1(C(F)(F)F)CC(C)(Cl)C1` (some centres not stated), the inhibition constant (Ki) was 0.78 nM.
Same read-out and setting: for `C[C@@H](NC(=O)[C@]1(C(F)(F)F)C[C@](C)(Cl)C1)c1ccc(Br)cc1` (stereo in doubt; 3a) the value was 2.3 nM.
Compound `C[C@@H](NC(=O)[C@]1(C(F)(F)F)C[C@](C)(Cl)C1)c1ccc(Br)cc1` (stereo in doubt; 3b) displayed a Ki of 0.026 nM. Against the preceding compound, the Ki is about 88-fold lower.

The values are drawn from ChEMBL document CHEMBL1132522, “A new potent inhibitor of fungal melanin biosynthesis identified through combinatorial chemistry” (Bioorg Med Chem Lett, 1999).
